From US5547856A, “Hepatocyte growth factor variants” (Genentech, Inc., priority 1993, dated 1996)
Entries after “also recorded” stand apart in the source; their conditions may differ.

Assays:
[1] = biological target: extracellular domain of the human HGF receptor (huHGFr) fused to the Fc constant region of an human IgG; assay: Soluble HGF receptor competitive binding assay (displacement of 125I-rhuHGF); conditions: for Kdwt/mut: Table 2, Kd ratio wild type/mutant; for Kd: binding to HGF receptor:IgG fusion protein, calculated at the IC50 from fitted inhibition curves; for Kdwt/Kdvar +/-S.D.: Table 1, receptor binding capacity relative to WT rhuHGF, at least three independent assays; for receptor binding / Kd (in words): compared to WT rhuHGF
Experimental: The coding sequence of the extracellular domain of the huHGFr was fused to those of the human IgGl heavy chain in a two-step process. […] The 5' primer (located in the vector upstream of the HeFr coding sequences) and the 3' primer (5'-[…]-3') (SEQ. ID. NO: 21) were used in a 100 μl reaction as described above except that the extension time at 72° C. was 3 minutes, and 40 ng of the full length HGFr expression vector was used as template. […] Sequencing of the construct was carried out as described above.
The binding assay was performed in breakable microtiter plates (Nunc) coated o/n at 4° C. with […] of rabbit-anti-human IgG Fc specific antibody (Jackson Immunoresearch) and plates were carefully washed with PBS containing 0.05% Tween 20 (Biorad). […] To each well […] of serial dilutions (1:25-1:6000) of cell supernatants, purified CHO-expressed rhuHGF ([…]) or medium were added in duplicates. Subsequently, […] of 50 pM of HGF receptor:IgG fusion protein were added and the plates were incubated with gentle shaking. After 4 hours, when equilibrium was reached, plates were washed and wells were individually counted in a gamma-counter. The amount of nonspecifically bound radioactivity was estimated by incubating HGF receptor:IgG with a 500-fold excess of unlabelled rhuHGF.

[2] = test system: rat hepatocytes in primary culture; assay: Mitogenic assay: induction of DNA synthesis (3H-TdR incorporation) of rat hepatocytes in primary culture; format: cell-based; conditions: for SA mut/wt +/- SD: Table 2, specific mitogenic activity relative to wt rhuHGF; for SA mut/wt +/- SD / SA +/- mut/wt / SA var/SA wt +/-S.D.: * = did not reach the same absolute level as wild-type huHGF; for SA +/- mut/wt: Table 3, alterations near or within the hairpin domain; for SA var/SA wt +/-S.D.: Table 1, specific mitogenic activity of variant relative to WT rhuHGF, at least three independent assays; for residual SA compared to WT rhuHGF: % of WT rhuHGF specific activity
Experimental: The biological activity of WT huHGF and variants was measured by their abilities to induce DNA synthesis of rat hepatocytes in primary culture. […] Briefly, the livers of female Sprague Dawley rats (160-180 g) were perfused through the portal vein with 100 mL of Ca^++ free Hepes buffered saline containing 0.02% Collagenase type IV (Sigma). After 20 minutes the liver was removed, placed in buffer, gently stirred to separate hepatocytes from connective tissue and blood vessels, and filtered through nylon mesh. Cells were then washed by centrifugation, resuspended at 1×10^5 cells/mL in Williams Media E (Gibco) containing Penicillin (100 U/ml), Streptomycin ([…]), L-Glutamine (2 mM), trace elements (0.01%), transfertin ([…]) and Aprotinin ([…]). […] After 48 hours incubation at 37° C., 0.5 mCi 3H-TdR (15 Ci/mmole, Amersham) was added to each well and incubated for an additional 16 hours. Cells were harvested on filter papers, which were washed, dried and counted in a Beckman counter after addition of scintillation liquid. For each huHGF variant, the specific activity (SA) expressed in units/mg was calculated at half-maximal proliferation (defined as 1 unit/mL) using the HGF concentration obtained in ELISA.

[3] = test system: 145 kDa β-subunit of the HGF receptor in A549 cells; assay: Induction of tyrosine phosphorylation of the HGF receptor on A549 cells (Western blot); format: cell-based, human; conditions: serum-starved A549 cells, 200 ng/mL purified protein, 5 minutes
Experimental: FIG. 4: Western blot of ligand-induced tyrosine-phosphorylation on the 145 kDa β-subunit of the HGF receptor by wild-type rhuHGF, single-chain or protease domain huHGF variants. […] Molecular masses (kilodaltons) are as indicated.
Serum-starved cells were incubated without or with 200 ng/mL rhuHGF for 5 minutes at 37° C. and extracted with lysis buffer containing 50 mM Hepes, 150 mM NaCl, 1.5 mM MgCl2, 1 mM EGTA, 10% Glycerol, 1% Triton X-100 and a cocktail of protease inhibitors. The lysates were immunoprecipitated with anti-Met COOH antibodies and blotted with anti-phosphotyrosine antibodies (see Western blotting above).

[4] = test system: cell surface receptor on hepatocytes; conditions: Higuchi and Nakamura 1991; cited from earlier work

Substance	Kdwt/mut [1]	SA mut/wt +/- SD [2]	SA +/- mut/wt [2]	also measured
wt rhuHGF: wild-type recombinant human hepatocyte growth factor, 728 amino acid form (Miyazawa et al. 1989) [reference compound]	1	1	1	Kd [1]: 0.07 nM; Kd ([1]; listed as WT rhuHGF): 0.05 to 0.07 nM; tyrosine phosphorylation of the HGF receptor (in words) [3]: led to the phosphorylation on tyrosine of the 145 kDa β-subunit of the HGF receptor
K52A: huHGF variant with alteration near or within the hairpin domain	–	–	0.19 +/- 0.03	–
K58A, K60A, K62A, K63A, N65A: huHGF variant with alterations near or within the hairpin domain	–	–	6.96 +/- 0.12	–
H114A: huHGF variant with alteration near or within the hairpin domain	–	–	0.16 +/- 0.04	–
E115A: huHGF variant with alteration near or within the hairpin domain	–	–	0.20 +/- 0.02	–
Q534H: huHGF protease domain variant, Q534 replaced with H	–	–	–	Kdwt/Kdvar +/-S.D. [1]: 1.48 +/- 0.85; Kd [1]: 0.06 nM; SA var/SA wt +/-S.D. [2]: 1.19 +/- 0.44
N193A: huHGF Kringle 1 domain substitution variant	0.62 +/- 0.20	0.45 +/- 0.12	–	–
R197A: huHGF Kringle 1 domain substitution variant	< 0.03	< 0.01	–	–
H114A, E115A, D117A: huHGF variant with alterations near or within the hairpin domain	–	–	< 0.02	–
Y673S, V692S	–	–	–	Kdwt/Kdvar +/-S.D. [1]: 1.76 +/- 0.63; receptor binding / Kd (in words) [1]: not significantly different from WT rhuHGF; residual SA compared to WT rhuHGF [2]: less than 3%; SA var/SA wt +/-S.D. [2]: < 0.02; tyrosine phosphorylation of the HGF receptor (in words) [3]: reduced ability to induce phosphorylation of the HGF receptor; also recorded: not efficient in stimulating tyrosine-phosphorylation in A549 cells
K34A, R35A, R36A: huHGF variant with alterations near or within the hairpin domain	–	–	0.71 +/- 0.33	–
Y673S: huHGF protease domain variant, Y673 replaced with S	–	–	–	Kdwt/Kdvar +/-S.D. [1]: 1.35 +/- 0.72; receptor binding / Kd (in words) [1]: Kd similar to WT rhuHGF; fold reduction of SA compared to wt rhuHGF [2]: approximately 5 fold; maximum plateau of mitogenic response [2]: approximately 50 % of wt rhuHGF plateau; SA var/SA wt +/-S.D. [2]: 0.27 +/- 0.07
D117A: huHGF variant with alteration near or within the hairpin domain	–	–	0.02	–
Q173A: huHGF Kringle 1 domain substitution variant	0.15 +/- 0.05	0.13 +/- 0.03	–	–
R181A, E183A, E184A: huHGF Kringle 1 domain substitution variant	0.95 +/- 0.04	0.92 +/- 0.08	–	–
K52A, D54A: huHGF variant with alterations near or within the hairpin domain	–	–	0.32 +/- 0.03	–
huHGF: human hepatocyte growth factor as studied in the literature for binding to hepatocytes	–	–	–	Kd [4]: 0.024 to 0.032 nM
Q534H, Y673S: huHGF protease domain double variant	–	–	–	Kdwt/Kdvar +/-S.D. [1]: 2.24 +/- 1.11; receptor binding / Kd (in words) [1]: not significantly different from WT rhuHGF; residual SA compared to WT rhuHGF [2]: less than 3%; SA var/SA wt +/-S.D. [2]: < 0.03

Substance	Kdwt/mut [1]	SA mut/wt +/- SD [2]	SA +/- mut/wt [2]	also measured
D54A: huHGF variant with alteration near or within the hairpin domain	–	–	0.13 +/- 0.01	–
Y198A: huHGF Kringle 1 domain substitution variant	0.77	0.88 +/- 0.06	–	–
R168A: huHGF Kringle 1 domain substitution variant	0.98 +/- 0.04	0.83 +/- 0.07	–	–
F162A: huHGF Kringle 1 domain substitution variant	0.05 +/- 0.01	0.04 +/- 0.02	–	–
R126A, N127A: huHGF variant with alterations near or within the hairpin domain	–	–	0.33 +/- 0.14	–
K109A, K110A, E111A: huHGF variant with alterations near or within the hairpin domain	–	–	0.98 +/- 0.04	–
Q534H, Y673S, V692S: huHGF protease domain triple variant	–	–	–	Kdwt/Kdvar +/-S.D. [1]: 1.91 +/- 1.28; receptor binding / Kd (in words) [1]: not significantly different from WT rhuHGF; residual SA compared to WT rhuHGF [2]: less than 3%; SA var/SA wt +/-S.D. [2]: < 0.02
K144A, K148A: huHGF Kringle 1 domain substitution variant	1.03 +/- 0.08	0.93 +/- 0.16	–	–
E159A: huHGF Kringle 1 domain substitution variant	< 0.03	< 0.02	–	–
L163A, S165A, S166A: huHGF Kringle 1 domain substitution variant	1.10 +/- 0.04	0.14 +/- 0.08	–	–
V692S: huHGF protease domain variant, V692 replaced with S	–	–	–	Kdwt/Kdvar +/-S.D. [1]: 1.02 +/- 0.13; receptor binding / Kd (in words) [1]: Kd similar to WT rhuHGF; fold reduction of SA compared to wt rhuHGF [2]: ~10 fold; maximum plateau of mitogenic response [2]: approximately 50 % of wt rhuHGF plateau; SA var/SA wt +/-S.D. [2]: 0.08 +/- 0.04
Q173A, E174A, N175A: huHGF Kringle 1 domain substitution variant	0.21 +/- 0.03	0.33 +/- 0.07	–	–
N72A, R76A, N77A, K78A: huHGF variant with alterations near or within the hairpin domain	–	–	0.04 +/- 0.07	–
N193A, E195A, R197A: huHGF Kringle 1 domain substitution variant	< 0.04	< 0.02	–	–
F162A, L163A, S165A, S166A: huHGF Kringle 1 domain substitution variant	0.05 +/- 0.02	< 0.02	–	–
R494E	–	–	–	Kdwt/Kdvar +/-S.D. [1]: 0.31 +/- 0.13; SA var/SA wt +/-S.D. [2]: < 0.02; tyrosine phosphorylation of the HGF receptor (in words) [3]: reduced ability to induce phosphorylation of the HGF receptor; also recorded: not efficient in stimulating tyrosine-phosphorylation in A549 cells
K137A: huHGF Kringle 1 domain substitution variant	0.98 +/- 0.04	1.12 +/- 0.10	–	–
